35 compounds from patent publication US20160083391A1, “TRICYCLIC PIPERAZINE DERIVATIVE” (Sunovion Pharmaceuticals Inc., priority 2014, published 2016) can be followed below.

The experiment relates to PDE1. The experiment is described as follows: In vitro HTRF PDE1 inhibition assay. The class given is biochemical. The conditions noted are these: HTRF cGMP assay, 100 nM cyclic GMP, PDE (1A3, 1B or 1C) with calmodulin, 45 minutes at 37° C.; isoform of the tabulated values not stated. An outline of the steps:
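HTRF cGMP competition assay: PDE1A3, 1B or 1C with calmodulin acting on 100 nM cGMP in 1% DMSO, pH 7.4 buffer with Ca2+ and Mg2+, 45 min at 37 °C. Remaining cGMP detected with d2-cGMP and anti-cGMP cryptate (665/615 nm); IC50 reported as banded categories.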
On the technique in general: Time-resolved FRET reads energy transfer from a long-lived donor to a nearby acceptor.
Compound `O=c1c2cnn(C3CCOCC3)c2nc2n1CCN(Cc1ccc(Cl)cc1)C2` [Compound I-211, 8-(4-Chlorobenzyl)-1-(tetrahydro-2H-pyran-4-yl)-6,7,8,9-tetrahydropyrazino[1,2-a]pyrazolo[3,4-d]pyrimidin-4(1H)-one] registered an IC50 of less than 1000 nM.

Consider `O=c1c2cnn(C3CCCC3)c2nc2n1CCN(CCc1ccc(Cl)cc1)C2` [Compound I-243, 8-(4-Chlorophenethyl)-1-cyclopentyl-6,7,8,9-tetrahydropyrazino[1,2-a]pyrazolo[3,4-d]pyrimidin-4(1H)-one], for which the IC50 was 1000 to 10000 nM.

Compound `COc1cccc(N2CCn3c(nn4c(C5CCCC5)ncc4c3=O)C2)c1` [Compound I-181, 3-Cyclopentyl-7-(3-methoxyphenyl)-8,9-dihydro-6H-imidazo[5,1-f]pyrazino[2,1-c][1,2,4]triazin-11(7H)-one] had a half-maximal inhibitory concentration (IC50) of less than 1000 nM.

`CC1Cn2c(nc3c(cnn3C(C)C)c2=O)CN1Cc1ccc(Cl)cc1` (racemic) [Compound I-147, (±)-8-(4-Chlorobenzyl)-1-isopropyl-7-methyl-6,7,8,9-tetrahydropyrazino[1,2-a]pyrazolo[3,4-d]pyrimidin-4(1H)-one] had an IC50 of less than 1000 nM.

Turning to `CN1Cc2nc3c(cnn3C3CCCC3)c(=O)n2C(c2ccccc2)C1` (racemic) [Compound I-102, (±)-1-cyclopentyl-8-methyl-6-phenyl-6,7,8,9-tetrahydropyrazino[1,2-a]pyrazolo[3,4-d]pyrimidin-4(1H)-one], the IC50 is greater than 10000 nM.

For the compound `CC(C)n1ncc2c(=O)n3c(nc21)CN(c1ccc(Cl)cn1)CC3` [Compound I-241, 8-(5-Chloropyridin-2-yl)-1-isopropyl-6,7,8,9-tetrahydropyrazino[1,2-a]pyrazolo[3,4-d]pyrimidin-4(1H)-one], the IC50 was less than 1000 nM.

In the case of `CC(C)n1ncc2c(=O)n3c(nc21)CN(c1ccc(C#N)cc1)CC3` [Compound I-237, 4-(1-Isopropyl-4-oxo-6,7-dihydropyrazino[1,2-a]pyrazolo[3,4-d]pyrimidin-8(1H,4H,9H)-yl)benzonitrile], the IC50 is less than 1000 nM.

Regarding `CC(C)c1nn(C)c2c(=O)n3c(nc12)CN(Cc1ccccc1)CC3` [Compound I-46, 6-Benzyl-3-isopropyl-1-methyl-5,6,7,8-tetrahydropyrazino[1,2-a]pyrazolo[4,3-d]pyrimidin-10(1H)-one], the IC50 was greater than 10000 nM.

Take `O=c1c2cnn(C3CCOCC3)c2nc2n1CCN(c1ccc(Cl)cc1)C2` [Compound I-212, 8-(4-Chlorophenyl)-1-(tetrahydro-2H-pyran-4-yl)-6,7,8,9-tetrahydropyrazino[1,2-a]pyrazolo[3,4-d]pyrimidin-4(1H)-one]: the IC50 is less than 1000 nM.

In turn, `CCCn1ncc2c(=O)n3c(nc21)CN(Cc1cccc(OC)c1)CC3` [Compound I-254, 8-(3-Methoxybenzyl)-1-propyl-6,7,8,9-tetrahydropyrazino[1,2-a]pyrazolo[3,4-d]pyrimidin-4(1H)-one] gave an IC50 of 1000 to 10000 nM.

Take `CC(C)(C)c1ncc2c(=O)n3c(nn12)CN(c1ccc(Cl)cc1)CC3` [Compound I-250, 3-(tert-Butyl)-7-(4-chlorophenyl)-8,9-dihydro-6H-imidazo[5,1-f]pyrazino[2,1-c][1,2,4]triazin-11(7H)-one]: the IC50 is 1000 to 10000 nM.

`CC(C)n1ncc2c(=O)n3c(nc21)CN(Cc1cccc(-c2ccccc2)c1)CC3` [Compound I-65, 8-([1,1′-Biphenyl]-3-ylmethyl)-1-isopropyl-6,7,8,9-tetrahydropyrazino[1,2-a]pyrazolo[3,4-d]pyrimidin-4(1H)-one] displayed a 50% inhibitory concentration (IC50) of less than 1000 nM.

Consider `Cn1ncc2c(=O)n3c(nc21)C(Cc1ccccc1)N(Cc1ccccc1)CC3` (racemic) [Compound I-35, (±)-8,9-Dibenzyl-1-methyl-6,7,8,9-tetrahydropyrazino[1,2-a]pyrazolo[3,4-d]pyrimidin-4(1H)-one], for which the concentration for half-maximal inhibition (IC50) was greater than 10000 nM.

On to `COc1ccc(CN2CCn3c(nn4c(C5CCOC5)ncc4c3=O)C2)cc1` (racemic) [Compound I-232, (±)-7-(4-Methoxybenzyl)-3-(tetrahydrofuran-3-yl)-8,9-dihydro-6H-imidazo[5,1-f]pyrazino[2,1-c][1,2,4]triazin-11(7H)-one], for which the IC50 was 1000 to 10000 nM.

In the case of `O=c1c2cn[nH]c2nc2n1CCN(Cc1ccccc1)C2` [Compound I-27, 8-Benzyl-6,7,8,9-tetrahydropyrazino[1,2-a]pyrazolo[3,4-d]pyrimidin-4(1H)-one], the IC50 is greater than 10000 nM.

With `CC1NCCn2c1nc1c(cnn1C)c2=O` (racemic) [Compound I-3, (±)-1,9-Dimethyl-6,7,8,9-tetrahydropyrazino[1,2-a]pyrazolo[3,4-d]pyrimidin-4(1H)-one], the IC50 was greater than 10000 nM.

On to `CC(C)n1ncc2c(=O)n3c(nc21)CNCC3` [Compound I-1, 1-Isopropyl-6,7,8,9-tetrahydropyrazino[1,2-a]pyrazolo[3,4-d]pyrimidin-4(1H)-one], for which the IC50 was greater than 10000 nM.

In turn, `CC(C)Cn1ncc2c(=O)n3c(nc21)CN(c1cccc(Cl)c1)CC3` [Compound I-89, 8-(3-Chlorophenyl)-1-isobutyl-6,7,8,9-tetrahydropyrazino[1,2-a]pyrazolo[3,4-d]pyrimidin-4(1H)-one] came in with an IC50 of less than 1000 nM.

The compound `COc1ccc(CN2CCn3c(nn4c(CC(C)C)nnc4c3=O)C2)cc1` [Compound I-213, 3-Isobutyl-7-(4-methoxybenzyl)-8,9-dihydro-6H-pyrazino[2,1-c][1,2,4]triazolo[3,4-f][1,2,4]triazin-11(7H)-one] registered an IC50 of less than 1000 nM.

`COc1cccc(CN2CCn3c(nc4c(cnn4CC(C)C)c3=O)C2)c1` [Compound I-80, 1-Isobutyl-8-(3-methoxybenzyl)-6,7,8,9-tetrahydropyrazino[1,2-a]pyrazolo[3,4-d]pyrimidin-4(1H)-one] gave an IC50 of 1000 to 10000 nM.

Take `COCCn1ncc2c(=O)n3c(nc21)CN(Cc1ccc(Cl)c(Cl)c1)CC3` [Compound I-160, 8-(3,4-Dichlorobenzyl)-1-(2-methoxyethyl)-6,7,8,9-tetrahydropyrazino[1,2-a]pyrazolo[3,4-d]pyrimidin-4(1H)-one]: the IC50 is greater than 10000 nM.

Turning to `CC(C)c1n[nH]c2c(=O)n3c(nc12)C(Cc1ccccc1)NCC3` (racemic) [Compound I-12, (±)-5-Benzyl-3-isopropyl-5,6,7,8-tetrahydropyrazino[1,2-a]pyrazolo[4,3-d]pyrimidin-10(1H)-one], the IC50 was greater than 10000 nM.

For `CC(C)Cc1nnc2c(=O)n3c(nn12)CN(Cc1ccc(Cl)cc1)CC3` [Compound I-215, 7-(4-Chlorobenzyl)-3-isobutyl-8,9-dihydro-6H-pyrazino[2,1-c][1,2,4]triazolo[3,4-f][1,2,4]triazin-11(7H)-one], the half-maximal inhibitory concentration (IC50) was less than 1000 nM.

In the case of `Cc1cnc(CN2CCn3c(nn4c(C(C)C)ncc4c3=O)C2)nc1` [Compound I-200], the IC50 fell in the range of 1000 to 10000 nM.

As for `O=c1c2cnc(C3CCCC3)n2nc2n1CCN(Cc1ccc(Cl)cc1)C2` [Compound I-134, 7-(4-Chlorobenzyl)-3-cyclopentyl-8,9-dihydro-6H-imdazo[5,1-f]pyrazino[2,1-c][1,2,4]triazin-11(7H)-one], the IC50 is less than 1000 nM.

For the compound `CC1c2nc3c(cnn3-c3ccccc3)c(=O)n2CCN1Cc1ccccc1` (racemic) [Compound I-33, (±)-8-Benzyl-9-methyl-1-phenyl-6,7,8,9-tetrahydropyrazino[1,2-a]pyrazolo[3,4-d]pyrimidin-4(1H)-one], the IC50 is greater than 10000 nM.

On to `COc1ccc(CN2CCn3c(nc4c(C5CCCC5)noc4c3=O)C2)cc1` [Compound I-129, 3-Cyclopentyl-6-(4-methoxybenzyl)-7,8-dihydro-5H-isoxazolo[4,5-d]pyrazino[1,2-a]pyrimidin-10(6H)-one], for which the IC50 was in the range of 1000 to 10000 nM.

As to `CC1c2nc3c(cnn3C3CCCC3)c(=O)n2CCN1Cc1ccc(Cl)cc1` (racemic) [Compound I-117, (±)-8-(4-Chlorobenzyl)-1-cyclopentyl-9-methyl-6,7,8,9-tetrahydropyrazino[1,2-a]pyrazolo[3,4-d]pyrimidin-4(1H)-one], the IC50 is 1000 to 10000 nM.

As for `O=c1c2c(Nc3ccccc3)n[nH]c2nc2n1CCNC2` [Compound I-16, 3-(Phenylamino)-6,7,8,9-tetrahydropyrazino[1,2-a]pyrazolo[3,4-d]pyrimidin-4(1H)-one], the 50% inhibitory concentration (IC50) is greater than 10000 nM.

With `O=c1c2cnc(C3CCOCC3)n2nc2n1CCN(Cc1ccc(Cl)cc1)C2` [Compound I-235, 7-(4-Chlorobenzyl)-3-(tetrahydro-2H-pyran-4-yl)-8,9-dihydro-6H-imidazo[5,1-f]pyrazino[2,1-c][1,2,4]triazin-11(7H)-one], the IC50 was less than 1000 nM.

`O=c1c2cn[nH]c2nc2n1CCNC2Cc1ccccc1` (racemic) [Compound I-6, (±)-9-Benzyl-6,7,8,9-tetrahydropyrazino[1,2-a]pyrazolo[3,4-d]pyrimidin-4(1H)-one] gave an IC50 greater than 10000 nM.

In turn, `CC(C)CC1c2nc3c(cnn3C(C)C)c(=O)n2CCN1Cc1ccccc1` (racemic) [Compound I-56, (±)-8-benzyl-9-isobutyl-1-isopropyl-6,7,8,9-tetrahydropyrazino[1,2-a]pyrazolo[3,4-d]pyrimidin-4(1H)-one] gave an IC50 of 1000 to 10000 nM.

`O=c1c2cnn(C3CCC3)c2nc2n1CCN(c1ccc(Cl)cc1)C2` [Compound I-246, 8-(4-Chlorophenyl)-1-cyclobutyl-6,7,8,9-tetrahydropyrazino[1,2-a]pyrazolo[3,4-d]pyrimidin-4(1H)-one]: the half-inhibitory concentration (IC50) was in the range of 1000 to 10000 nM.

`CC(C)n1ncc2c(=O)n3c(nc21)CN(Cc1cccc(F)c1)CC3` [Compound I-137, 8-(3-Fluorobenzyl)-1-isopropyl-6,7,8,9-tetrahydropyrazino[1,2-a]pyrazolo[3,4-d]pyrimidin-4(1H)-one] displayed an IC50 of 1000 to 10000 nM.

`CC(C)n1ncc2c(=O)n3c(nc21)CN(Cc1ccccc1Cl)CC3` [Compound I-67, 8-(2-Chlorobenzyl)-1-isopropyl-6,7,8,9-tetrahydropyrazino[1,2-a]pyrazolo[3,4-d]pyrimidin-4(1H)-one] had an IC50 of less than 1000 nM.

By IC50 is commonly meant the midpoint of a concentration-inhibition curve.
